Assay results as given in patent publication US11479580B2, “Polypeptide expressed in the stratum corneum and use thereof” (CENTRE NATIONAL DE LA RECHERCHE SCIENTIFIQUE—CNRS, priority 2010, dated 2022).

Columns and labels:
[1] = system: transglutaminases present in the granular layer of the human epidermis; test: In situ binding assay of biotinylated polypeptides on cryosections of human abdominal skin; format: biochemical; conditions: 100 μM; for marking of the contour of the granular keratinocytes (polypeptide bound to cornified envelopes): 5 mM CaCl2, 2 h at room temperature, confocal microscope; for marking of the granular keratinocytes, negative control: 100 mM EDTA, absence of calcium
Experimental: To determine what region of the LCE6A protein is necessary for binding by the transglutaminases, the applicant arranged for the company MilleGen to synthesize various polypeptides, biotinylated at their N-terminal end, with a length of 9 to 13 amino acids, corresponding to different regions of the amino acid sequence of LCE6A.
These polypeptides were used in binding assays in situ. Cryosections of human abdominal skin, saturated by incubation in the presence of bovine albumin at 1% in PBS for 30 minutes at room temperature, were brought into contact with 100 mM Tris (pH 7.4) containing 100 μM of biotinylated polypeptide and 5 mM of CaCl2. After incubation for 2 h at room temperature, the reaction is stopped by adding EDTA at 25 mM for 5 minutes. The sections are then incubated in PBS containing 1% of SDS to destroy the noncovalent bonds.
The presence of biotinylated polypeptides bound to the cornified envelopes by the transglutaminases that are present and active in the tissue is detected by incubation of the sections with streptavidin-AlexaFluor555 at 5 μg/ml (Invitrogen) and visualization in the confocal microscope.
A positive control is performed in a similar experiment but by incubating the sections with 100 μM of cadaverine coupled to AlexaFluor555 (Invitrogen) instead of the polypeptides. For the negative controls, the cryosections are incubated with each biotinylated polypeptide or with cadaverine coupled to AlexaFluor555 but incubation is carried out in the presence of 100 mM of EDTA and in the absence of calcium.

[2] = system: endogenous transglutaminase; test: In vitro crosslinking binding assay with short peptide analogues of LCE6A fragments on human skin cryosections; format: biochemical; conditions: for labelling of the contour of the granular keratinocytes (peptide crosslinked to cornified envelopes) / labelling of the granular keratinocytes, negative control: 100 μM; for labelling of the contour of the granular keratinocytes (peptide crosslinked to cornified envelopes): 5 mM CaCl2, 2 h at room temperature, fluorescence microscope; for labelling of the granular keratinocytes, negative control: in the presence of EDTA, absence of calcium
Experimental: Protocol: The following short peptides derived from the amino acid sequences PEVQKP of LCE6A (amino-acids 49 to 54 of SEQ ID NO:2), which sequences meet the criteria defined above and are biotinylated at their amino-terminus, were synthesized: PGVQKP (SEQ ID NO: 7), PEGQKP (SEQ ID NO: 8), GEVQKP (SEQ ID No: 9), PEVQKG (SEQ ID No: 10).
These peptides were used at a concentration of 100 μM in in situ binding assays. Cryosections of human abdominal skin, saturated by incubation in the presence of bovine albumin at 1% in PBS for 30 minutes at room temperature, were brought into contact with 100 mM Tris (pH 7.4) containing 100 μM of biotinylated polypeptide and 5 mM of CaCl2). After incubation for 2 h at room temperature, the reaction was stopped by adding EDTA at 25 mM for 20 minutes. The sections were then incubated in PBS containing 1% of SDS to destroy the noncovalent bonds. The presence of biotinylated polypeptides bound to the cornified envelopes by the transglutaminases that are present and active in the tissue was detected by incubation of the sections with streptavidin-AlexaFluor555 at 5 μg/ml (Invitrogen) and visualization in the fluorescence microscope. A positive control was performed in a similar experiment but by incubating the sections with 100 μM of the peptide PEVQKP of LCE6A (amino-acids 49 to 54 of SEQ ID NO: 2). For the negative control, the cryosections were incubated with each biotinylated polypeptide but incubation was carried out in the presence of 100 mM of EDTA and in the absence of calcium.

Row | marking of the granular keratinocytes, negative control [1] | Substance | marking of the contour of the granular keratinocytes (polypeptide bound to cornified envelopes) [1] | further results
1 |  | EVAKPRRARQALR (Mutated peptide of SEQ ID NO 5) [reference compound] | does not give any pericellular marking | 
2 |  | MSQAKQQSW (Mutated peptide of SEQ ID NO 3) [reference compound] | does not give any pericellular marking | 
3 |  | PEVQKG (Designed peptide based on homology to amino acid residue 49 to 54 from Protein LCE6A) |  | ability to bind cornified envelopes (conclusion) [2]: possesses the ability to bind cornified envelopes; labelling of the contour of the granular keratinocytes (peptide crosslinked to cornified envelopes) [2]: strong labelling of the contour of the granular keratinocytes; labelling of the granular keratinocytes, negative control [2]: Absence of labelling
4 |  | PEVQKP (fragment) |  | labelling of the contour of the granular keratinocytes (peptide crosslinked to cornified envelopes) [2]: labelling of the contour of the granular keratinocytes; labelling of the granular keratinocytes, negative control [2]: Absence of labelling
5 |  | RPAPPPISGGGYRAR (Control peptide of SEQ ID NO 19) [reference compound] | does not give any pericellular marking | 
6 | no marking is obtained | SEQ ID NO: 3: polypeptide fragment of LCE6A, 9 to 13 amino acids, sequence not printed in the text (MSQQKQQSW; Designed peptide based on homology to amino acid residue 1 to 9 from Protein LCE6A) |  | 
7 | no marking is obtained | SEQ ID NO: 4: polypeptide fragment of LCE6A, 9 to 13 amino acids, sequence not printed in the text (SSQRPEVQKPR; Designed peptide based on homology to amino acid residue 45 to 55 from Protein LCE6A) |  | 
8 | no marking is obtained | SEQ ID NO: 5: polypeptide fragment of LCE6A, 9 to 13 amino acids, sequence not printed in the text (EVQKPRRARQKLR; Designed peptide based on homology to amino acid residue 50 to 62 from Protein LCE6A) |  | 
